Reference: patent publication US20190374563A1, “TREATMENT OF KLEBSIELLA PNEUMONIAE INFECTIONS WITH ANTIBACTERIAL AMINOGLYCOSIDE COMPOUNDS” (Achaogen, Inc., priority 2009, published 2019)
≈ marks a conversion by molar mass, not a printed value. Where two headings read alike, the source gives them in different places.

Experiments:
[1] = tested on: P. aeruginosa ATCC 27853 (APAE001); test: MIC assay, CLSI broth microdilution; type: cell-based; settings: Pseudomonas aeruginosa
Outline: (§1)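 MICs were read after 20 hours at 35° C in ambient air, with a final inoculum of 5×10^5 CFU/mL from saline-suspended overnight colonies. Serial two-fold dilutions in Mueller Hinton Broth followed the CLSI reference method (M7-A7), with QC strains E. coli ATCC 25922, P. aeruginosa ATCC 27853 and S. aureus ATCC 29213.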

[2] = tested on: E. coli ATCC 25922; test: murine septicemia model of infection; type: in vivo; settings: mice, single SC or IV dose 1 hour after IP challenge, mortality for 7 days; ED50 values are mg/kg
Procedure: (§2) Two models were run on each compound, using E. coli and P. aeruginosa QC bacterial strains. Both studies employed the same design. […] At 1 hour after bacterial challenge, the mice received a single SC or IV dose of vehicle or test substance to assess in vivo anti-infective activity. Mortality was recorded once daily for 7 days after bacterial inoculation.

[3] = tested on: P. aeruginosa ATCC 27853; test: murine septicemia model of infection; type: in vivo; settings: mice, single SC or IV dose 1 hour after IP challenge, mortality for 7 days; ED50 values are mg/kg
Procedure: as §2

[4] = tested on: E. coli ATCC 25922 (AECO001); test: MIC assay, CLSI broth microdilution; type: cell-based; set-up: MIC AECO001: unit not given here; settings: Table 3; E. coli ATCC25922
Outline: as §1

[5] = tested on: A. calcoaceticus AACA005, AAC(6′)-I; test: MIC assay, aminoglycoside resistant strain; type: cell-based; set-up: unit not given beside the values; settings: Table 3; A. calcoaceticus AAC(6′)-I
Procedure: (§3) Minimum inhibitory concentrations (MIC) were determined by reference Clinical and Laboratory Standards Institute (CLSI) broth microdilution methods per M7-A7 [2006]. Quality control ranges utilizing E. coli ATCC 25922, P. aeruginosa ATCC 27853 and S. aureus ATCC 29213, and interpretive criteria for comparator agents were as published in CLSI M100-S17 [2007]. Briefly, serial two-fold dilutions of the test compounds were prepared at 2× concentration in Mueller Hinton Broth. The compound dilutions were mixed in 96-well assay plates in a 1:1 ratio with bacterial inoculum. The inoculum was prepared by suspension of a colony from an agar plate that was prepared the previous day. Bacteria were suspended in sterile saline and added to each assay plate to obtain a final concentration of 5×10^5 CFU/mL. The plates were incubated at 35° C. for 20 hours in ambient air.
(§4) These MIC assays were conducted following the same protocol as set forth in Example 110. As shown, substituted sisomicin derivatives with groups other than methyl at the 6′-position have improved activity against strains expressing the AAC6′-modifying enzymes.

[6] = tested on: E. coli AECO040, AAC(6′)-I; test: MIC assay, aminoglycoside resistant strain; type: cell-based; set-up: unit not given beside the values; settings: Table 3; E. coli AAC(6′)-I
Procedure: as §3, §4

[7] = tested on: K. pneumoniae producing KPC (n = 25); test: MIC by microdilution, clinical isolates; type: cell-based; settings: K. pneumoniae producing KPC (n = 25); for S (%), susceptible isolates: CLSI criteria, tigecycline US FDA criteria
Procedure: (§5) The in vitro activity of representative antibacterial aminoglycoside compounds against a collection of 102 K. pneumoniae clinical isolates collected from January 2006 to October 2007 at the University of Pittsburgh Medical Center, and three Cleveland institutions including University Hospitals Case Medical Center, the Cleveland Clinic, and the Louis Stokes Department of Veterans Affairs Medical Center was analyzed. The 102 K. pneumoniae isolates were selected based on a multidrug-resistant (MDR) phenotype (i.e., resistance to >3 antibiotic classes). Twenty-five isolates were KPC carbapenemase producing (KPC-Kp), and were part of a previous study where the β-lactamase background and clonality were characterized (see Endimiani, A., A. M. Hujer, F. Perez, C. R. Bethel, K. M. Hujer, J. Kroeger, M. Oethinger, D. L. Paterson, M. D. Adams, M. R. Jacobs, D. J. Diekema, G. S. Hall, S. G. Jenkins, L. B. Rice, F. C. Tenover, and R. A. Bonomo. 2009. Characterization of blaKPC-containing Klebsiella pneumoniae isolates detected in different institutions in the Eastern USA. J Antimicrob Chemother 63:427-37).
(§6) Minimum inhibitory concentrations (MICs) were performed by microdilution method using cation-adjusted Mueller-Hinton broth, according to the Clinical and Laboratory Standards Institute (CLSI) criteria (see CLSI. 2006. Methods for dilution antimicrobial susceptibility tests for bacteria that grow aerobically; approved standard-Seventh edition. Clinical and Laboratory Standard Institute, Wayne, Pa. CLSI document M7-A7). These MIC assays were conducted following the same protocol as set forth in Example 110. […] The following ATCC control strains were used: Escherichia coli ATCC 25922, Pseudomonas aeruginosa ATCC 27853, and K. pneumoniae ATCC 700603.

[8] = tested on: multidrug-resistant (MDR) K. pneumoniae isolates (n = 102); test: MIC by microdilution, clinical isolates; type: cell-based; settings: for S (%), susceptible isolates: CLSI criteria, tigecycline US FDA criteria
Procedure: as §5, §6

CN[C@@H]1[C@@H](O)[C@@H](O[C@@H]2[C@@H](O)[C@H](O[C@H]3OC(CNCCCN)=CC[C@H]3N)[C@@H](N)C[C@H]2NC(=O)[C@@H](O)CN)OC[C@]1(C)O [Example 17, 6′-(3-Amino-propyl)-1-(3-amino-2(S)-hydroxy-propionyl)-sisomicin]
MIC ([1]; Table 1, APAE001 is ATCC27853, read-out: MIC APAE001): 1 to 16 µg/mL (≈ 1.69 to 27 µM) | ED50/MIC E. Coli [2]: 1 | ED50/MIC P. aeruginosa [3]: 5

CN[C@@H]1C(O)[C@@H](O[C@@H]2[C@@H](O)[C@H](OC3OC(CN)=CC[C@H]3N)[C@@H](N)C[C@H]2NC(=O)[C@@H](O)CCN)OC[C@]1(C)O (some centres unmarked) [Mono-substituted Compound 6]
MIC AECO001 [4]: 0.5 | MIC AACA005 [5]: 16 | MIC AECO040 [6]: 4

CN[C@@H]1C(O)[C@@H](O[C@@H]2[C@@H](O)[C@H](OC3OC(CN)=CC[C@H]3N)[C@@H](N)C[C@H]2NC(=O)C2(O)CNC2)OC[C@]1(C)O (some centres unmarked) [Mono-substituted Compound 7]
MIC AECO001 [4]: 1 | MIC AACA005 [5]: 32 | MIC AECO040 [6]: 4

NCC[C@H](O)C(=O)N[C@@H]1C[C@H](N)[C@@H](O[C@H]2O[C@H](CN)[C@@H](O)[C@H](O)[C@H]2O)[C@H](O)[C@H]1O[C@H]1O[C@H](CO)[C@@H](O)[C@H](N)[C@H]1O [Amikacin, amikacin]
S (%), susceptible isolates [7]: 48.0% | S (%), susceptible isolates ([7]; listed as amikacin): 48% | MIC50 ([7]; Klebsiella pneumoniae, read-out: MIC50): 32 µg/mL (≈ 54.6 µM) | MIC90 ([7]; Klebsiella pneumoniae, read-out: MIC90): 32 µg/mL (≈ 54.6 µM) | MIC50 ([8]; Klebsiella pneumoniae, Total MDR K. pneumoniae isolates (n = 102), read-out: MIC50): 2 µg/mL (≈ 3.42 µM) | MIC90 ([8]; Klebsiella pneumoniae, Total MDR K. pneumoniae isolates (n = 102), read-out: MIC90): 32 µg/mL (≈ 54.6 µM) | isolates fully resistant (MICs of 64 μg/ml) ([8]; MDR K. pneumoniae isolates (n = 102)): five | S (%), susceptible isolates ([8]; Total MDR K. pneumoniae isolates (n = 102)): 78.4% | S (%), susceptible isolates ([8]; Total MDR K. pneumoniae isolates (n = 102), listed as amikacin): 78% | ED50/MIC E. Coli [2]: 1.5 | ED50/MIC P. aeruginosa [3]: 13

CN[C@@H]1[C@@H](O)[C@@H](O[C@@H]2C(O)[C@H](O[C@H]3OC(CNCCCN)=CC[C@H]3N)[C@@H](N)C[C@H]2N)OC[C@]1(C)O (some centres unmarked) [Mono-substituted Compound 4]
MIC AECO001 [4]: 2 | MIC AACA005 [5]: 1 | MIC AECO040 [6]: 16

CN[C@@H]1[C@@H](O)[C@@H](O[C@@H]2C(O)[C@H](O[C@H]3OC(CNCC4CC4)=CC[C@H]3N)[C@@H](N)C[C@H]2N)OC[C@]1(C)O (some centres unmarked) [Mono-substituted Compound 2]
MIC AECO001 [4]: 1 | MIC AACA005 [5]: 4 | MIC AECO040 [6]: 1

CN[C@@H]1[C@@H](O)[C@@H](O[C@@H]2[C@@H](O)[C@H](O[C@H]3OC(CNCC4CCNCC4)=CC[C@H]3N)[C@@H](N)C[C@H]2NC(=O)[C@@H](O)CN)OC[C@]1(C)O [Example 15, 6′-(Methyl-piperidin-4-yl)-1-(3-amino-2(S)-hydroxy-propionyl)-sisomicin]
MIC ([1]; ATCC27853, read-out: MIC APAE001): 1 to 16 µg/mL (≈ 1.58 to 25.3 µM) | ED50/MIC E. Coli [2]: <1 | ED50/MIC P. aeruginosa [3]: 1

CN[C@@H]1[C@@H](O)[C@@H](O[C@@H]2[C@@H](O)[C@H](O[C@H]3OC(CN)=CC[C@H]3N)[C@@H](N)C[C@H]2N)OC[C@]1(C)O [Sisomicin]
MIC AECO001 [4]: 0.5 | MIC AACA005 [5]: 32 | MIC AECO040 [6]: 32

CNCC1=CC[C@@H](N)[C@@H](O[C@H]2C(O)[C@@H](O[C@H]3OC[C@](C)(O)[C@H](NC)[C@H]3O)[C@H](N)C[C@@H]2N)O1 (some centres unmarked) [Mono-substituted Compound 1]
MIC AECO001 [4]: 1 | MIC AACA005 [5]: 2 | MIC AECO040 [6]: >64

CN[C@@H]1[C@@H](O)[C@@H](O[C@@H]2C(O)[C@H](O[C@H]3OC(CNCC4CCNCC4)=CC[C@H]3N)[C@@H](N)C[C@H]2N)OC[C@]1(C)O (some centres unmarked) [Mono-substituted Compound 3]
MIC AECO001 [4]: 0.5 | MIC AACA005 [5]: 0.5 | MIC AECO040 [6]: 0.25

CN[C@@H]1C(O)[C@@H](O[C@@H]2[C@@H](O)[C@H](OC3OC(CN)=CC[C@H]3N)[C@@H](N)C[C@H]2NC(=O)[C@@H](O)CN)OC[C@]1(C)O (some centres unmarked) [Mono-substituted Compound 5]
MIC AECO001 [4]: 0.5 | MIC AACA005 [5]: 32 | MIC AECO040 [6]: 8
